{"source": "ChEMBL document CHEMBL5696442", "about": "“Discovery of type II inhibitors of TGFβ-activated kinase 1 (TAK1) and mitogen-activated protein kinase kinase kinase kinase 2 (MAP4K2)” (J Med Chem, 2015)", "key": {"[1]": {"target": "Serine/threonine-protein kinase ULK2 (Homo sapiens) (UniProt Q8IYT8)", "experiment": "Inhibition of ULK2 (unknown origin) at 1 uM by Ambit Kinomescan binding assay relative to control"}, "[2]": {"test_system": "Receptor-type tyrosine-protein kinase FLT3 (Homo sapiens), P36888 [K663Q]", "experiment": "Inhibition of FLT3 K663Q mutant (unknown origin) at 1 uM by Ambit Kinomescan binding assay relative to control; values are per cent of control"}, "[3]": {"target": "Cyclin-dependent kinase 7 (Homo sapiens) (UniProt P50613)", "experiment": "Inhibition of CDK7 Lys2 labeling site in human A-375 cells at 5 uM by KiNativ Profiling analysis relative to control", "assay_type": "cell-based"}, "[4]": {"target": "T1, Serine/threonine-protein kinase ULK3 (Homo sapiens) (UniProt Q6PHR2)", "T1 sequence (whole entry)": "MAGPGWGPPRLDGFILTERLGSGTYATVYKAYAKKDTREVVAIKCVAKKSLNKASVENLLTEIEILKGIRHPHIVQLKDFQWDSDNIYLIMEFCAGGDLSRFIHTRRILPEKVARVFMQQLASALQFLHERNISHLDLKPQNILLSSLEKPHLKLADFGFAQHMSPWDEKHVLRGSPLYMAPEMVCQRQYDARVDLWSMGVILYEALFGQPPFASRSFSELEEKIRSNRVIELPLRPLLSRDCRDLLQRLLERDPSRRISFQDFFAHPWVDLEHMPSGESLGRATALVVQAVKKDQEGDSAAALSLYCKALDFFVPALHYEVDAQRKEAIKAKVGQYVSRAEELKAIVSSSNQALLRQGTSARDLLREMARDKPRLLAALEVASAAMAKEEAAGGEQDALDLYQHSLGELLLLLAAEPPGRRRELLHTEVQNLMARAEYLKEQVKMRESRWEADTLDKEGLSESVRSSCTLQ", "experiment": "Inhibition of ULK3 (unknown origin) at 10 uM by Ambit Kinomescan binding assay relative to control; values are per cent of control"}, "[5]": {"target": "Protein-tyrosine kinase 2-beta (Homo sapiens) (UniProt Q14289)", "sequence (Q14289 whole entry, looked up)": "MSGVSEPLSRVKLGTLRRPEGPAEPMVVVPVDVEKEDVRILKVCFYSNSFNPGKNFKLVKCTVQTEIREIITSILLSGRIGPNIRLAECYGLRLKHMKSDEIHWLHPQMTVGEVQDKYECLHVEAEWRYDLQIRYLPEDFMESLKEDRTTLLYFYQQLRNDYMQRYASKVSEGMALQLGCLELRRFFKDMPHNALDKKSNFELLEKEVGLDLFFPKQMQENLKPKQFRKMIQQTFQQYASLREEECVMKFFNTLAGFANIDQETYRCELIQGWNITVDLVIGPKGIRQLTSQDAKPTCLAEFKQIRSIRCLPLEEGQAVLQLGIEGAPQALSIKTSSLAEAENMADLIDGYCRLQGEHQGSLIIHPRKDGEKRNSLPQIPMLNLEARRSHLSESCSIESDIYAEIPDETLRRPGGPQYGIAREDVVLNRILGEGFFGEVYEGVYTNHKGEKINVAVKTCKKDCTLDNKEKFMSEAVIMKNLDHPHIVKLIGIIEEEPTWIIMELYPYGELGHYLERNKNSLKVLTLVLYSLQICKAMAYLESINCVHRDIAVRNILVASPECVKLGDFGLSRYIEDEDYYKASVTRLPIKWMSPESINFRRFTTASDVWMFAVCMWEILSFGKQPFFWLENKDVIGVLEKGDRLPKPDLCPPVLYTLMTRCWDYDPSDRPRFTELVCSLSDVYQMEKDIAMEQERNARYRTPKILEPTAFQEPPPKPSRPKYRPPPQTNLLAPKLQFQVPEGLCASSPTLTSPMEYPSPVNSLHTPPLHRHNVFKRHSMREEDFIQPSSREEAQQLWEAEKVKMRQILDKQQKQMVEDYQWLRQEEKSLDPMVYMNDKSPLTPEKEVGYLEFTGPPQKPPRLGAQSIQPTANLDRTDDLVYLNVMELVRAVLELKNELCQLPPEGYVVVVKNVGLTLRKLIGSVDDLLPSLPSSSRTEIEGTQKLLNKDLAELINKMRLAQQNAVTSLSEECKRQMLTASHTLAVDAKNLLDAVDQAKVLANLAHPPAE", "experiment": "Inhibition of PYK2 (unknown origin) at 10 uM by Ambit Kinomescan binding assay relative to control; values are per cent of control"}, "[6]": {"target": "Phosphatidylinositol 4-kinase alpha (Homo sapiens) (UniProt P42356)", "sequence (P42356 whole entry, looked up)": "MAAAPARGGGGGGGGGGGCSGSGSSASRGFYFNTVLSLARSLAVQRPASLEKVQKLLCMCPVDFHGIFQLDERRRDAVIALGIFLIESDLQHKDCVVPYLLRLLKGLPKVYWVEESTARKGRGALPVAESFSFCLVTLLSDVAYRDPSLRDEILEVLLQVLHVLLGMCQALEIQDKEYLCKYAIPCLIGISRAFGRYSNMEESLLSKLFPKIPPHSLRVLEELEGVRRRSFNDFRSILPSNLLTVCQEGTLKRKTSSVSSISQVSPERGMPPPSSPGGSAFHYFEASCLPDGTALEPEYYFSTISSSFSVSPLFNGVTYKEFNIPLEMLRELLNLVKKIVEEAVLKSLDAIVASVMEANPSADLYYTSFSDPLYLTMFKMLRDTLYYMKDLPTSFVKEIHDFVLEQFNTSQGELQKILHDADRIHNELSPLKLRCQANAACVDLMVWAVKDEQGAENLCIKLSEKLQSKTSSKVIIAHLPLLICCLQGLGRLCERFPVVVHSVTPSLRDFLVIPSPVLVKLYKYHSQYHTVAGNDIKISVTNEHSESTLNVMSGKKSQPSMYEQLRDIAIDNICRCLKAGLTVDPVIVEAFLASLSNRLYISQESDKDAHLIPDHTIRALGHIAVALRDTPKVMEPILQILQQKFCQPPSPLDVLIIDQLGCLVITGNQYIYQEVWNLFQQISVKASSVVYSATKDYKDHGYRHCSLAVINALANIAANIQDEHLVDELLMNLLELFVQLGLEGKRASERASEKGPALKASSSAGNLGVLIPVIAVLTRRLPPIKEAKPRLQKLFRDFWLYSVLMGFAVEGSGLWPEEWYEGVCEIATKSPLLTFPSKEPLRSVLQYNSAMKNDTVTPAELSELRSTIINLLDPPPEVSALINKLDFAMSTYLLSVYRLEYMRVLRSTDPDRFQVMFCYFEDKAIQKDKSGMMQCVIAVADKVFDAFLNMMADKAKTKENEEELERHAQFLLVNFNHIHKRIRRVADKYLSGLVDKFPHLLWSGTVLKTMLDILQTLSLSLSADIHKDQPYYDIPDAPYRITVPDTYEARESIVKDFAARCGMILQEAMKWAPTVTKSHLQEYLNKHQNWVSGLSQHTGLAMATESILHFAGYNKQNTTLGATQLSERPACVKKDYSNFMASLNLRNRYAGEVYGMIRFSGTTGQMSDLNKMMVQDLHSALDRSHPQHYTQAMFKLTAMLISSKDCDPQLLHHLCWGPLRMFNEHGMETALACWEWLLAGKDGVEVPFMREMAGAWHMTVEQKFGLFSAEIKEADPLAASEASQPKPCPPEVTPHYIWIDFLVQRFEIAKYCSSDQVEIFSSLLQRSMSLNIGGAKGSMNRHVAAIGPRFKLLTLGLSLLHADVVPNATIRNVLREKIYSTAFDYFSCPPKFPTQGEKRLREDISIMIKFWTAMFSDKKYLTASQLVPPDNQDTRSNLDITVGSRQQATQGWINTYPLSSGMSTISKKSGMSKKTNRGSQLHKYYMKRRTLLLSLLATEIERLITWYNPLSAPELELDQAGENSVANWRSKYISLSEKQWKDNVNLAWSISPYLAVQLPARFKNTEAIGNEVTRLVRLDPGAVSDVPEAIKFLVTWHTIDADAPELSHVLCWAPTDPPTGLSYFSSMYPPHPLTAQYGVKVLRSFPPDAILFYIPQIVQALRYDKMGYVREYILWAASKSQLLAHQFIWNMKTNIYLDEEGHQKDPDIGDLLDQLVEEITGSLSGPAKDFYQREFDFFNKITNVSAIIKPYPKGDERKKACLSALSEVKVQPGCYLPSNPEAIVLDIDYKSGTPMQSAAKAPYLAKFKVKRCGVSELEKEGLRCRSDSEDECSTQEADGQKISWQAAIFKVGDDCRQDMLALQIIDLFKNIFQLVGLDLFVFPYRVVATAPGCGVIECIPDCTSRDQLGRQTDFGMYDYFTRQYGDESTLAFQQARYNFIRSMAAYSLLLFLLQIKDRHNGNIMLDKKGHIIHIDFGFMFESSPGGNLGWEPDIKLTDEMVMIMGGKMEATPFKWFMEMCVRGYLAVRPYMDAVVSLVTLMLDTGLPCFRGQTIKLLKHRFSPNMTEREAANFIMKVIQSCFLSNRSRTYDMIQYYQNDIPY", "experiment": "Inhibition of PIK4CA ATP labeling site in human Huh-7 cells at 1 uM by KiNativ Profiling analysis relative to control", "assay_type": "cell-based"}, "[7]": {"target": "Microtubule-associated serine/threonine-protein kinase 3 (Homo sapiens) (UniProt O60307)", "experiment": "Inhibition of MAST3 Lys2 labeling site in human A-375 cells at 0.05 uM by KiNativ Profiling analysis relative to control", "assay_type": "cell-based"}, "[8]": {"target": "Leukocyte tyrosine kinase receptor (Homo sapiens) (UniProt P29376)", "sequence (P29376 whole entry)": "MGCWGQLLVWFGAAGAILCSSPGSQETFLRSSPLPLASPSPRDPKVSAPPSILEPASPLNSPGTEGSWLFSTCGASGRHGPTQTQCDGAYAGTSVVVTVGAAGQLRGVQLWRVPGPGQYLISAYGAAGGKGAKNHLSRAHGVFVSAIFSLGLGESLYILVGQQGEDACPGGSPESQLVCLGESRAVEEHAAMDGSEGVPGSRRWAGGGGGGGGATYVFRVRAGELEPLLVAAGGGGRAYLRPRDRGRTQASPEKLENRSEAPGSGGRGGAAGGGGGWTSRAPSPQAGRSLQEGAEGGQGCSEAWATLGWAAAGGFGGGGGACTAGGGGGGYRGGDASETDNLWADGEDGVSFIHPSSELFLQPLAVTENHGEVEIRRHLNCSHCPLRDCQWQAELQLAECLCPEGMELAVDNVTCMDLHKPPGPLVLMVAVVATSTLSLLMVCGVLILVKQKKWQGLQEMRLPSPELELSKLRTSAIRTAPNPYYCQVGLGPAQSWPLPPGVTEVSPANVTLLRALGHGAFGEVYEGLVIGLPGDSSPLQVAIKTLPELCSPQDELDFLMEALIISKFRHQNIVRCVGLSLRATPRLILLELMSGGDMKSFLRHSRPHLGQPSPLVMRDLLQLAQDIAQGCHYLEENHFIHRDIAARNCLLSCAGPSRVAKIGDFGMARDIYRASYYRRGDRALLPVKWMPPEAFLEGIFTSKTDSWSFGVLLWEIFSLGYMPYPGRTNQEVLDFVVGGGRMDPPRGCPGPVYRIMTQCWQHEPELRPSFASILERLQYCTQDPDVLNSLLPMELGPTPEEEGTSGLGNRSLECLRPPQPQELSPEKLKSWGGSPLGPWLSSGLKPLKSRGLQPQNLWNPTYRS", "experiment": "Inhibition of LTK (unknown origin) at 10 uM by Ambit Kinomescan binding assay relative to control"}, "[9]": {"target": "T2, Serine/threonine-protein kinase TAO2 (Homo sapiens) (UniProt Q9UL54)", "T2 sequence (whole entry)": "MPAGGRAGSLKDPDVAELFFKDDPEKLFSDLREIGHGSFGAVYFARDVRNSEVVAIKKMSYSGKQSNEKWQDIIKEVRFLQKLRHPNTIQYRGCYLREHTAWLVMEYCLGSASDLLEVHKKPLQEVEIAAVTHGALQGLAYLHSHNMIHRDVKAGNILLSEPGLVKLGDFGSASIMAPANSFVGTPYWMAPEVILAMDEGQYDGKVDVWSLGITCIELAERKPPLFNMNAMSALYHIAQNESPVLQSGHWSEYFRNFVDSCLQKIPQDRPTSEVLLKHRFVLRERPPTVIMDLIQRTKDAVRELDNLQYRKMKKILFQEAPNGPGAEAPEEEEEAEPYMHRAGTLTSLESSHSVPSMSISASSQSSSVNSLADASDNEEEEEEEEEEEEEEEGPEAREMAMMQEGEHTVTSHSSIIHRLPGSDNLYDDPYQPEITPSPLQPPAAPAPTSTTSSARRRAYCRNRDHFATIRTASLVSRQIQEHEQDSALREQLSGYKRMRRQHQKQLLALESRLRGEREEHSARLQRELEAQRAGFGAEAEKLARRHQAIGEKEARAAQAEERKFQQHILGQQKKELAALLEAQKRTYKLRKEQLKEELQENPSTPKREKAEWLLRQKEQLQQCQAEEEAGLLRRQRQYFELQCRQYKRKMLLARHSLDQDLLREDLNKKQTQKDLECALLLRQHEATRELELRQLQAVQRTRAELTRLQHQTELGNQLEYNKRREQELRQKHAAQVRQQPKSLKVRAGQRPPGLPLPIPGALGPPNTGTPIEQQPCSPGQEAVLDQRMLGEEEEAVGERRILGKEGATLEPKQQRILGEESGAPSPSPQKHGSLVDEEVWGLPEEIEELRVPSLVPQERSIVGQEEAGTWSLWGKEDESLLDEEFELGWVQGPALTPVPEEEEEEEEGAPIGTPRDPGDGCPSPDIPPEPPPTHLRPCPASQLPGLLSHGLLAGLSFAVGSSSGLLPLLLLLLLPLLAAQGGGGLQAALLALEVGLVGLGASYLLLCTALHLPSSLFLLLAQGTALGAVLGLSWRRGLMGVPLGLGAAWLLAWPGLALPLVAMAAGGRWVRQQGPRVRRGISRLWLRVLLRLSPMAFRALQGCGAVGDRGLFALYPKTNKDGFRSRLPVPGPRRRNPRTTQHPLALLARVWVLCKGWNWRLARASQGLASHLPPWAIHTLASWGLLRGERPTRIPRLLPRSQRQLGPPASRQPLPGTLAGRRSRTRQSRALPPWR", "experiment": "Inhibition of TAO2 Lys2 labeling site in human Huh-7 cell lysate at 1 uM by KiNativ Profiling analysis relative to control", "assay_type": "subcellular"}, "[10]": {"target": "Cyclin-dependent kinase 17 (Homo sapiens) (UniProt Q00537)", "experiment": "Inhibition of PCTAIRE2 PCTAIRE3 Lys1 labeling site in human Huh-7 cell lysate at 1 uM by KiNativ Profiling analysis relative to control", "assay_type": "subcellular"}, "[11]": {"target": "Calcium/calmodulin-dependent protein kinase type II subunit gamma (Homo sapiens) (UniProt Q13555)", "sequence (Q13555 whole entry)": "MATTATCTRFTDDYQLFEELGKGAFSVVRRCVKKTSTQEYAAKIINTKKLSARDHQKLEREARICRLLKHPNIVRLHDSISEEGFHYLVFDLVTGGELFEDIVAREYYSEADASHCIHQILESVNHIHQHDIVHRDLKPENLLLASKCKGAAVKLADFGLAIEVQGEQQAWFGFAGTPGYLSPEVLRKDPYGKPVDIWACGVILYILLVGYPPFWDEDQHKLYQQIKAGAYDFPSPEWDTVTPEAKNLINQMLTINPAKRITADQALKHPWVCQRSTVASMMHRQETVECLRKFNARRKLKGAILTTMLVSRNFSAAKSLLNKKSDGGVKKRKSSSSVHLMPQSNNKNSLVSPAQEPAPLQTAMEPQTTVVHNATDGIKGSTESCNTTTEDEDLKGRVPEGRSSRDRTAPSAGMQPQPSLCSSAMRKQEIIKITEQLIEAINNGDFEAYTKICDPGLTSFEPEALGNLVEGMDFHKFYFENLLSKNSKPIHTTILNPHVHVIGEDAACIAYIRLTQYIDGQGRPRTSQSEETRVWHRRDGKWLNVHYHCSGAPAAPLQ", "experiment": "Inhibition of CaMK2g Lys1 labeling site harbouring TSTQEYAAKIINTKK in human Huh-7 cell lysate at 1 uM by KiNativ Profiling analysis relative to control", "assay_type": "subcellular"}, "[12]": {"target": "Serine/threonine-protein kinase VRK2 (Homo sapiens) (UniProt Q86Y07)", "sequence (Q86Y07 whole entry)": "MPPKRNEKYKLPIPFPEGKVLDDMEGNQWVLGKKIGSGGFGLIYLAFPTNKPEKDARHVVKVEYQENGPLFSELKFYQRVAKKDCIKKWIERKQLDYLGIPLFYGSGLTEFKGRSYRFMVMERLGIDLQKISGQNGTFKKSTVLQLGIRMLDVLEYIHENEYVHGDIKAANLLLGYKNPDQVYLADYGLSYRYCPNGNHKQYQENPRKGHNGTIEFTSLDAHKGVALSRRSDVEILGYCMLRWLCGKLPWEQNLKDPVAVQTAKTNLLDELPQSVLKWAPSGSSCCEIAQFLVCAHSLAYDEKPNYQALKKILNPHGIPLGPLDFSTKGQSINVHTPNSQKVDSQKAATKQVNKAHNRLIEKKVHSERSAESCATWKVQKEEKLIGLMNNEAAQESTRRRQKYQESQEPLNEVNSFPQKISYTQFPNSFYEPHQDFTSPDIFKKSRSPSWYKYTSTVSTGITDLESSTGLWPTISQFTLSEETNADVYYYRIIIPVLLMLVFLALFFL", "experiment": "Inhibition of VRK2 Lys2 labeling site in human Huh-7 cell lysate at 1 uM by KiNativ Profiling analysis relative to control", "assay_type": "subcellular"}, "[13]": {"target": "Mitogen-activated protein kinase 7 (Homo sapiens) (UniProt Q13164)", "experiment": "Inhibition of Erk5 Lys2 labeling site in human Huh-7 cell lysate at 1 uM by KiNativ Profiling analysis relative to control", "assay_type": "subcellular"}, "[14]": {"target": "Calcium/calmodulin-dependent protein kinase type II subunit gamma (Homo sapiens) (UniProt Q13555)", "experiment": "Inhibition of CaMK2g Lys1 labeling site harbouring TSTQEYAAKIINTKK in human Huh-7 cells at 1 uM by KiNativ Profiling analysis relative to control", "assay_type": "cell-based"}}}
{"smiles": "CCN1CCN(Cc2ccc(NC(=O)c3ccc(C)c(/C=C/c4cnc5[nH]ccc5c4OC)c3)cc2C(F)(F)F)CC1", "values": [{"measurement": "inhibition", "setting": "[1]", "result": 81, "unit": "%"}, {"measurement": "residual activity", "setting": "[2]", "result": 0.15, "unit": "%"}, {"measurement": "inhibition", "setting": "[3]", "result": 38.7, "unit": "%"}]}
{"smiles": "CCN1CCN(Cc2ccc(NC(=O)c3ccc(C)c(Oc4ccnc5[nH]ccc45)c3)cc2C(F)(F)F)CC1", "values": [{"measurement": "residual activity", "setting": "[4]", "result": 0.1, "unit": "%"}, {"measurement": "residual activity", "setting": "[5]", "result": 2.1, "unit": "%"}, {"measurement": "inhibition", "setting": "[6]", "result": 3.5, "unit": "%"}, {"measurement": "inhibition", "setting": "[7]", "result": -3.3, "unit": "%"}, {"measurement": "inhibition", "setting": "[8]", "result": 1.2, "unit": "%"}]}
{"smiles": "CNc1cc(Oc2cc(C(=O)Nc3cc(N4CCN(C)CC4)cc(C(F)(F)F)c3)ccc2C)ncn1", "values": [{"measurement": "inhibition", "setting": "[9]", "result": 7.5, "unit": "%"}, {"measurement": "inhibition", "setting": "[10]", "result": -9.5, "unit": "%"}, {"measurement": "inhibition", "setting": "[11]", "result": 8.6, "unit": "%"}, {"measurement": "inhibition", "setting": "[12]", "result": -0.9, "unit": "%"}, {"measurement": "inhibition", "setting": "[13]", "result": -6.5, "unit": "%"}, {"measurement": "inhibition", "setting": "[14]", "result": 31.8, "unit": "%"}]}
